According to ChEMBL document CHEMBL4507289, “Data for DCP probe GSM1” (2021):

Assays:
[1] = molecular target: Serine/threonine-protein kinase PAK 4 (Homo sapiens) (UniProt O96013); conditions: Compound concentration 1000.0 nM
[2] = molecular target: MAP/microtubule affinity-regulating kinase 4 (Homo sapiens) (UniProt Q96L34); conditions: Compound concentration 1000.0 nM
[3] = tested on: ALK tyrosine kinase receptor (Homo sapiens), Q9UM73 [L1196M]; conditions: Compound concentration 1000.0 nM
[4] = molecular target: Mitogen-activated protein kinase kinase kinase 14 (Homo sapiens) (UniProt Q99558); conditions: Compound concentration 1000.0 nM
[5] = molecular target: Mast/stem cell growth factor receptor Kit (Homo sapiens) (UniProt P10721); conditions: Compound concentration 1000.0 nM
Chain of Mast/stem cell growth factor receptor Kit (Homo sapiens) (P10721 whole entry, canonical isoform): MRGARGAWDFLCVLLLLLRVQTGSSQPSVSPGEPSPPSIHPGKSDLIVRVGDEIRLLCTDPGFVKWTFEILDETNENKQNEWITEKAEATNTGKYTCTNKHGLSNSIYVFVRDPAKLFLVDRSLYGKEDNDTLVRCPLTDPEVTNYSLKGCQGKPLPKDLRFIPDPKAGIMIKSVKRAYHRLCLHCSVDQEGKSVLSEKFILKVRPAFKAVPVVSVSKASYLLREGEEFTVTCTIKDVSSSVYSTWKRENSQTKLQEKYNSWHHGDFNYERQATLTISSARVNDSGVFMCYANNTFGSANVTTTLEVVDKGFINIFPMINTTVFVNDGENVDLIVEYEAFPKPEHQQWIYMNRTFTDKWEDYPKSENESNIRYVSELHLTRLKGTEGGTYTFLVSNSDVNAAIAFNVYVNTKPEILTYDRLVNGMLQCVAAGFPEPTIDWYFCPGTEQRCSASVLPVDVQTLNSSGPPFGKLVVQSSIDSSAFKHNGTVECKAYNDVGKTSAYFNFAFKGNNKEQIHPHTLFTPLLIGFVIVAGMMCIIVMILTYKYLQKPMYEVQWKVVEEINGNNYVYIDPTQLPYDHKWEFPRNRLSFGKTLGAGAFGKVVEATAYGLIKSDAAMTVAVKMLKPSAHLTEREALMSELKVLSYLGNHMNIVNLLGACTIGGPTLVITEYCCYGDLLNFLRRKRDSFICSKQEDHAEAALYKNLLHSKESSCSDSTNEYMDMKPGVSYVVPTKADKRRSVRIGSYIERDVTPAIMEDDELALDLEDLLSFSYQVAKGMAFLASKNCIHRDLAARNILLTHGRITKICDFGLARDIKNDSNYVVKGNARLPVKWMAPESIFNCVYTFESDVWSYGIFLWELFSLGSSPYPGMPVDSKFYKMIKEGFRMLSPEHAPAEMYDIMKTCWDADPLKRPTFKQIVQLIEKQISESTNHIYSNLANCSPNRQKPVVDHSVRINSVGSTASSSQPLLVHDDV

[6] = molecular target: Serine/threonine-protein kinase pim-3 (Homo sapiens) (UniProt Q86V86); conditions: Compound concentration 1000.0 nM
[7] = molecular target: Ribosomal protein S6 kinase alpha-4 (Homo sapiens) (UniProt O75676); conditions: Compound concentration 1000.0 nM
[8] = molecular target: Dual specificity tyrosine-phosphorylation-regulated kinase 2 (Homo sapiens) (UniProt Q92630); conditions: Compound concentration 1000.0 nM
[9] = molecular target: Dual specificity mitogen-activated protein kinase kinase 5 (Homo sapiens) (UniProt Q13163); conditions: Compound concentration 1000.0 nM
[10] = molecular target: Serine/threonine-protein kinase DCLK2 (Homo sapiens) (UniProt Q8N568); conditions: Compound concentration 1000.0 nM
[11] = molecular target: Muscle, skeletal receptor tyrosine-protein kinase (Homo sapiens) (UniProt O15146); conditions: Compound concentration 1000.0 nM
[12] = molecular target: Myosin light chain kinase, smooth muscle (Homo sapiens) (UniProt Q15746); conditions: Compound concentration 1000.0 nM
[13] = molecular target: Receptor-interacting serine/threonine-protein kinase 2 (Homo sapiens) (UniProt O43353); conditions: Compound concentration 1000.0 nM
[14] = molecular target: Serine/threonine-protein kinase 3 (Homo sapiens) (UniProt Q13188); conditions: Compound concentration 1000.0 nM
[15] = molecular target: Non-receptor tyrosine-protein kinase TYK2 (Homo sapiens) (UniProt P29597); conditions: Compound concentration 1000.0 nM
[16] = molecular target: Serine/threonine-protein kinase TBK1 (Homo sapiens) (UniProt Q9UHD2); conditions: Compound concentration 1000.0 nM
[17] = molecular target: Serine/threonine-protein kinase 4 (Homo sapiens) (UniProt Q13043); conditions: Compound concentration 1000.0 nM
Chain of Serine/threonine-protein kinase 4 (Homo sapiens) (Q13043 whole entry): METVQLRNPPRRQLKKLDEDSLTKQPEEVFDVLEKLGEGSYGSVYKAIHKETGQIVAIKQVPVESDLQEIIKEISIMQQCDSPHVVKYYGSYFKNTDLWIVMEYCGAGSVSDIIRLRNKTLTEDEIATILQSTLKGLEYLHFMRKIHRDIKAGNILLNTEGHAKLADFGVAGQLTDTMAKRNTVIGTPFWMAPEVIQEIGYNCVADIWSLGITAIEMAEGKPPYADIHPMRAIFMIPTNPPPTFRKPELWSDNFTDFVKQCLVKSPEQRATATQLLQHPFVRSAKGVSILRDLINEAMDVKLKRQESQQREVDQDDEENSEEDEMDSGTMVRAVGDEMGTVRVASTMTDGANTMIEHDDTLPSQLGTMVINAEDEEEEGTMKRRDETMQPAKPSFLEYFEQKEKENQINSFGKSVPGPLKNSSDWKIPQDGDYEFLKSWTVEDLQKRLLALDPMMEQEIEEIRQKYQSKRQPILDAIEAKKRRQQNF

[18] = molecular target: Mast/stem cell growth factor receptor Kit (Homo sapiens) (UniProt P10721); conditions: Compound concentration 1000.0 nM; remark: listed apart in the source
[19] = molecular target: Phosphatidylinositol 4,5-bisphosphate 3-kinase catalytic subunit alpha isoform (Homo sapiens) (UniProt P42336); conditions: Compound concentration 1000.0 nM
[20] = molecular target: STE20-like serine/threonine-protein kinase (Homo sapiens) (UniProt Q9H2G2); conditions: Compound concentration 1000.0 nM
[21] = molecular target: Serine/threonine-protein kinase pim-2 (Homo sapiens) (UniProt Q9P1W9); conditions: Compound concentration 1000.0 nM
[22] = molecular target: Aurora kinase A (Homo sapiens) (UniProt O14965); conditions: Compound concentration 1000.0 nM
Notch receptor = Notch receptor (Homo sapiens, UniProt P46531+Q9UM47+Q04721+Q99466); experiment: Notch assay; type: protein assay
[23] = tested on: Phosphatidylinositol 4,5-bisphosphate 3-kinase catalytic subunit alpha isoform (Homo sapiens), P42336 [Q546K]; conditions: Compound concentration 1000.0 nM
[24] = molecular target: Tyrosine-protein kinase JAK1 (Homo sapiens) (UniProt P23458); conditions: Compound concentration 1000.0 nM
[25] = tested on: Tyrosine-protein kinase ABL1 (Homo sapiens), P00519 [E255K]; conditions: Compound concentration 1000.0 nM
[26] = molecular target: Mitogen-activated protein kinase kinase kinase 15 (Homo sapiens) (UniProt Q6ZN16); conditions: Compound concentration 1000.0 nM
[27] = molecular target: Ribosomal protein S6 kinase alpha-1 (Homo sapiens) (UniProt Q15418); conditions: Compound concentration 1000.0 nM
Chain of Ribosomal protein S6 kinase alpha-1 (Homo sapiens) (Q15418 whole entry): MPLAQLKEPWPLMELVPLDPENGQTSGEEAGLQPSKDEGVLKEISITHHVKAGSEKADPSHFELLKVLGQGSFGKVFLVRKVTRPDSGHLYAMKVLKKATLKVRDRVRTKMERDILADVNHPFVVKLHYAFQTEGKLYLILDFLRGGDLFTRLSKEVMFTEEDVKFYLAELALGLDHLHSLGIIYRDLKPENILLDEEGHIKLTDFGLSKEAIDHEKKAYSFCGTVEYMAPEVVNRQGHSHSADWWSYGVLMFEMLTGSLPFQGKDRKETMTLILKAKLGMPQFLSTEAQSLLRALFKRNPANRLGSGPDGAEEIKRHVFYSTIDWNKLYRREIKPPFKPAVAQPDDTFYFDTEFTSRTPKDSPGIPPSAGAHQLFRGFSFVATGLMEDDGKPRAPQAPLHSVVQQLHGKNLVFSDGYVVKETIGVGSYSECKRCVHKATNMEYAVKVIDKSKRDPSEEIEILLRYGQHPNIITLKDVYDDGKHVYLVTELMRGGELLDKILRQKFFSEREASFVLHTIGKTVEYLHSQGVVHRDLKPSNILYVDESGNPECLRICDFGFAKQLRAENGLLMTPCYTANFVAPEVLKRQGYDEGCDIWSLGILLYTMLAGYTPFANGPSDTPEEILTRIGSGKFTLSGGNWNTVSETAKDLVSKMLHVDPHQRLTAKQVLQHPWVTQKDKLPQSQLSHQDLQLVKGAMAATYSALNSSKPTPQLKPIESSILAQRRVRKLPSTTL

[28] = molecular target: Serine/threonine-protein kinase Nek11 (Homo sapiens) (UniProt Q8NG66); conditions: Compound concentration 1000.0 nM
[29] = molecular target: Serine/threonine-protein kinase 35 (Homo sapiens) (UniProt Q8TDR2); conditions: Compound concentration 1000.0 nM
Chain of Serine/threonine-protein kinase 35 (Homo sapiens) (Q8TDR2 whole entry): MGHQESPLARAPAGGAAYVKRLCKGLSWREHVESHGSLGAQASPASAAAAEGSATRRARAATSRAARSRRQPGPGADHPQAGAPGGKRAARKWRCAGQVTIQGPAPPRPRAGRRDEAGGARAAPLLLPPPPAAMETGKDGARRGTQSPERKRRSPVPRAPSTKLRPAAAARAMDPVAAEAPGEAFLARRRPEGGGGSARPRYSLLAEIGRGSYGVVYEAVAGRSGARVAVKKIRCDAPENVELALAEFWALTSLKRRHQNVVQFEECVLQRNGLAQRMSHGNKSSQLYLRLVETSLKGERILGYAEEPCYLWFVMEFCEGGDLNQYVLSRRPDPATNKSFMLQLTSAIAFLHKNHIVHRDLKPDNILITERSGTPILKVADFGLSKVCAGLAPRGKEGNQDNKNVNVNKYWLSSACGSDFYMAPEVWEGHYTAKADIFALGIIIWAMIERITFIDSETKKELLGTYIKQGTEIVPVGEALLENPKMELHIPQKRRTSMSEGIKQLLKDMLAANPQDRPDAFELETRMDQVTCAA

[30] = molecular target: Serine/threonine-protein kinase Sgk2 (Homo sapiens) (UniProt Q9HBY8); conditions: Compound concentration 1000.0 nM
[31] = molecular target: Wee1-like protein kinase 2 (Homo sapiens) (UniProt P0C1S8); conditions: Compound concentration 1000.0 nM
[32] = molecular target: cGMP-dependent protein kinase 2 (Homo sapiens) (UniProt Q13237); conditions: Compound concentration 1000.0 nM
[33] = molecular target: Serine/threonine-protein kinase DCLK1 (Homo sapiens) (UniProt O15075); conditions: Compound concentration 1000.0 nM
Chain of Serine/threonine-protein kinase DCLK1 (Homo sapiens) (O15075 whole entry): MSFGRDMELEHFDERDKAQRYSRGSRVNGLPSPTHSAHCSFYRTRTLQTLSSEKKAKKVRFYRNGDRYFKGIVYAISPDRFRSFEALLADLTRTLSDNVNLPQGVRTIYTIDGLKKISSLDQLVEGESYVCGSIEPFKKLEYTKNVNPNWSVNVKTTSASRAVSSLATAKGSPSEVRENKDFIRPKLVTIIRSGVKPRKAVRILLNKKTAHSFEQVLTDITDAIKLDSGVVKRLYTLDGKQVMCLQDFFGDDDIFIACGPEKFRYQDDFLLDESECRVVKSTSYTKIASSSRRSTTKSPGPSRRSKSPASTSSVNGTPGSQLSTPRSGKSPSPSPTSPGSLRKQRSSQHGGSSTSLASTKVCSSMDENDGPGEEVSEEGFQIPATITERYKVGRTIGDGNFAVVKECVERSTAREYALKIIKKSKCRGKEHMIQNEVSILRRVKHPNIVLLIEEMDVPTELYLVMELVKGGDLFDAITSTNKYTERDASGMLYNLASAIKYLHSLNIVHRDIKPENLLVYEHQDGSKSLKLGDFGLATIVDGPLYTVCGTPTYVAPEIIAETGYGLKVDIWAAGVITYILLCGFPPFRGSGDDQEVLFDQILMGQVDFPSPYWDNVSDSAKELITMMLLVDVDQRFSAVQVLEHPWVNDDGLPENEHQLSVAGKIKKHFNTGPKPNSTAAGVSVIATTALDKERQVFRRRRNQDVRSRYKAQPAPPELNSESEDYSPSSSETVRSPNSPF

[34] = molecular target: G protein-coupled receptor kinase 3 (Homo sapiens) (UniProt P35626); conditions: Compound concentration 1000.0 nM
[35] = molecular target: RAC-beta serine/threonine-protein kinase (Homo sapiens) (UniProt P31751); conditions: Compound concentration 1000.0 nM
[36] = molecular target: Glycogen synthase kinase-3 alpha (Homo sapiens) (UniProt P49840); conditions: Compound concentration 1000.0 nM
[37] = molecular target: Casein kinase II subunit alpha' (Homo sapiens) (UniProt P19784); conditions: Compound concentration 1000.0 nM
[38] = molecular target: Fibroblast growth factor receptor 3 (Homo sapiens) (UniProt P22607); conditions: Compound concentration 1000.0 nM
[39] = molecular target: Vascular endothelial growth factor receptor 1 (Homo sapiens) (UniProt P17948); conditions: Compound concentration 1000.0 nM
[40] = molecular target: Cyclin-dependent kinase-like 1 (Homo sapiens) (UniProt Q00532); conditions: Compound concentration 1000.0 nM
[41] = molecular target: Mitogen-activated protein kinase 3 (Homo sapiens) (UniProt P27361); conditions: Compound concentration 1000.0 nM
[42] = molecular target: Uncharacterized serine/threonine-protein kinase SBK3 (Homo sapiens) (UniProt P0C264); conditions: Compound concentration 1000.0 nM
[43] = molecular target: Mitogen-activated protein kinase 9 (Homo sapiens) (UniProt P45984); conditions: Compound concentration 1000.0 nM
[44] = molecular target: Serine/threonine-protein kinase PAK 6 (Homo sapiens) (UniProt Q9NQU5); conditions: Compound concentration 1000.0 nM

Chain of ALK tyrosine kinase receptor (Homo sapiens), Q9UM73 [L1196M] (Q9UM73 whole entry L1196M, looked up): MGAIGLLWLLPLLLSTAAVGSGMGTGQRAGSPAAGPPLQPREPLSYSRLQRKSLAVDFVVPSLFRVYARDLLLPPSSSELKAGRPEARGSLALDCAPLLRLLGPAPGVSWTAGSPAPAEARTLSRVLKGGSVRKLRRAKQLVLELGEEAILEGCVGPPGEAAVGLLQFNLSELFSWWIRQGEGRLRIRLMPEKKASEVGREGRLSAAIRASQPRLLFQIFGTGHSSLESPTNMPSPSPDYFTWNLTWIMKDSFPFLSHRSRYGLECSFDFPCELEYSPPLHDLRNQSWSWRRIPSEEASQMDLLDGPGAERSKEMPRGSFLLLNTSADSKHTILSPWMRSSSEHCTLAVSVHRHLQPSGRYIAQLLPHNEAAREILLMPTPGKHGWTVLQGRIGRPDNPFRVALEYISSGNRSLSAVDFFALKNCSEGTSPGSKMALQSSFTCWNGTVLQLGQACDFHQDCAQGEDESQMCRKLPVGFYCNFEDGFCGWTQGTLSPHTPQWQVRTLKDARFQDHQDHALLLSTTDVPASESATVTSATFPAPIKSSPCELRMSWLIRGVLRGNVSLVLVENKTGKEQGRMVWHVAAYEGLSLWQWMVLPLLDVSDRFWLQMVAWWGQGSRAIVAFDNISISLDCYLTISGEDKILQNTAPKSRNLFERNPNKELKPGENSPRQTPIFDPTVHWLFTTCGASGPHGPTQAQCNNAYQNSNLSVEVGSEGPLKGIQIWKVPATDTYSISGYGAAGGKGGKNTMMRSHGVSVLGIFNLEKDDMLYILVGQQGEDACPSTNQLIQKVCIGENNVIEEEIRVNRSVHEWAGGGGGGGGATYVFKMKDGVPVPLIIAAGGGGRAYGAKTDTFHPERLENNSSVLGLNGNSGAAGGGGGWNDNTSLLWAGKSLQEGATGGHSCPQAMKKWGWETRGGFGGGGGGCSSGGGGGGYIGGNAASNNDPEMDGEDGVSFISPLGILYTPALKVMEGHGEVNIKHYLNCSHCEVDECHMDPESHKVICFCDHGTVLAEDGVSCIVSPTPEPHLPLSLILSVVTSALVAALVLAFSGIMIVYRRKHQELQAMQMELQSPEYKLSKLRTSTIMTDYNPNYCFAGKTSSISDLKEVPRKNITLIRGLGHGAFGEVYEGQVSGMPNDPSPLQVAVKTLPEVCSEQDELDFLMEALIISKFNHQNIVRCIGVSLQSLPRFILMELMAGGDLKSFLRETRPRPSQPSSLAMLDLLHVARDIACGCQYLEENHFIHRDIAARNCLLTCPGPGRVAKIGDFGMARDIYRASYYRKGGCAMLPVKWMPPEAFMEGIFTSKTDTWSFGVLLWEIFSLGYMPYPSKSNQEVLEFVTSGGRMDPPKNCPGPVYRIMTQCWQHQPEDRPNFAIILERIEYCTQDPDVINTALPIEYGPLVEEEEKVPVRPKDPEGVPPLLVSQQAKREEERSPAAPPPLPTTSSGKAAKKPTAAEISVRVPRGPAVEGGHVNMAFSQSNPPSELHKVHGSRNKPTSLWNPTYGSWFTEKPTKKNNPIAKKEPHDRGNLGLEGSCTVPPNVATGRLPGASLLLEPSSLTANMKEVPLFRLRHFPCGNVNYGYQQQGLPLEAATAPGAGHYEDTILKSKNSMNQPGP

## COc1cc(-c2cn([C@H]3CCc4ccccc4N(CC(F)(F)F)C3=O)nn2)ccc1-n1ccc(C)n1
[1]
  residual activity: 100%
[2]
  residual activity: 100%
[3]
  residual activity: 91%
[4]
  residual activity: 69%
[5]
  residual activity: 96%
[6]
  residual activity: 100%
[7]
  residual activity: 78%
[8]
  residual activity: 94%
[9]
  residual activity: 74%
[10]
  residual activity: 92%
[11]
  residual activity: 99%
[12]
  residual activity: 80%
[13]
  residual activity: 93%
[14]
  residual activity: 84%
[15]
  residual activity: 100%
[16]
  residual activity: 88%
[17]
  residual activity: 100%
[18]
  residual activity: 100%
[19]
  residual activity: 69%
[20]
  residual activity: 100%
[21]
  residual activity: 100%
[22]
  residual activity: 58%
Notch receptor
  IC50: > 50 µM
[23]
  residual activity: 97%
[24]
  residual activity: 80%
[25]
  residual activity: 96%
[26]
  residual activity: 84%
[27]
  residual activity: 95%
[28]
  residual activity: 99%
[29]
  residual activity: 100%
[30]
  residual activity: 100%
[31]
  residual activity: 100%
[32]
  residual activity: 85%
[33]
  residual activity: 100%
[34]
  residual activity: 100%
[35]
  residual activity: 93%
[36]
  residual activity: 86%
[37]
  residual activity: 84%
[38]
  residual activity: 100%
[39]
  residual activity: 100%
[40]
  residual activity: 97%
[41]
  residual activity: 100%
[42]
  residual activity: 92%
[43]
  residual activity: 64%
[44]
  residual activity: 100%

## COc1cc(-c2cn([C@H]3CCc4c(F)cccc4N(CC(F)(F)F)C3=O)nn2)ccc1-n1cnc(C)c1
[1]
  residual activity: 99%
[2]
  residual activity: 100%
[3]
  residual activity: 100%
[4]
  residual activity: 86%
[5]
  residual activity: 100%
[6]
  residual activity: 90%
[7]
  residual activity: 100%
[8]
  residual activity: 100%
[9]
  residual activity: 58%
[10]
  residual activity: 100%
[11]
  residual activity: 100%
[12]
  residual activity: 81%
[13]
  residual activity: 100%
[14]
  residual activity: 100%
[15]
  residual activity: 100%
[16]
  residual activity: 100%
[17]
  residual activity: 100%
[18]
  residual activity: 100%
[19]
  residual activity: 94%
[20]
  residual activity: 100%
[21]
  residual activity: 100%
[22]
  residual activity: 100%
Notch receptor
  IC50: 397.8 µM
[23]
  residual activity: 90%
[24]
  residual activity: 100%
[25]
  residual activity: 100%
[26]
  residual activity: 100%
[27]
  residual activity: 100%
[28]
  residual activity: 100%
[29]
  residual activity: 100%
[30]
  residual activity: 95%
[31]
  residual activity: 100%
[32]
  residual activity: 100%
[33]
  residual activity: 100%
[34]
  residual activity: 100%
[35]
  residual activity: 93%
[36]
  residual activity: 100%
[37]
  residual activity: 100%
[38]
  residual activity: 100%
[39]
  residual activity: 97%
[40]
  residual activity: 100%
[41]
  residual activity: 100%
[42]
  residual activity: 100%
[43]
  residual activity: 92%
[44]
  residual activity: 100%
